From patent publication US20080120731A1, “Transgenic Animal Models for Neurodevelopmental Disorders” (priority 2004, published 2008)
Where two headings read alike, the source gives them in different places.

Assays:
APH1BC ^−/− mice [1] = test: Locomotor activity (infrared beam breaks in activity monitor) after amphetamine; conditions: 3 μg/kg intraparietally
APH1BC ^−/− mice [2] = test: Open field locomotor activity (total distance traveled) after apomorphine; conditions: 2 μg/kg subcutaneously; for activity at 0.002 mg/kg: Mus musculus, sc, 10 min
APH1BC^−/− mice = test: Prepulse inhibition (PPI) of acoustic startle after antipsychotic injection; assay type: in vivo
From the text: Schizophrenia is a complex disease characterized by delusions and hallucinations (so-called positive symptoms), affective and social disturbances (negative symptoms), but also by cognitive deficits. Disturbed information processing, and more specifically an impairment in the filtering of irrelevant stimuli, is thought to contribute to the disease phenotype by causing “sensory flooding”, which may lead to cognitive fragmentation. A psychophysical measure of (pre-attentive) information filtering is “prepulse inhibition” (PPI). […] The strength of this reflex response is read out by recording the amplitude of the eye-blink response that is part of the startling reaction. This way, the amplitude of the eye-blink response is a measure of the efficiency of the coupling of the sensory stimulus to the motor reflex programme. If the startle stimulus is preceded by a weak, non-startling “prepulse stimulus”, e.g. a tone just above background noise levels, the amplitude of the eye-blink response to the startle stimulus is strongly diminished in normal individuals. […] The “% prepulse inhibition (PPI)” is quantified as: 100−((A2/A1)*100), with A1 being the amplitude of the response to the startle stimulus and A2 the amplitude of the response to the same startle stimulus preceded by the prepulse stimulus. […] In rodents the motor reaction to a startle stimulus is quantified by placing mice into a restraining tube in a sound-proof cabin mounted onto a pressure sensitive platform. Upon presentation of the startling sound, the mouse flinches and the pressure it exerts via its limbs is recorded quantitatively as a ballistogram that can be analysed using appropriate software. This way, the effect of a preceding prepulse on the flinching reaction to a startle stimulus can be calculated.
For all trials, background noise was 70 db, the prepulse preceded the startle stimulus by 100 ms, the prepulse stimuli lasted 20 ms and the startle stimuli lasted 60 ms. […] For each of the four different combinations of prepulse and startle stimulus, the % PPI was calculated using the formula described above. […]

Compound: CC(N)Cc1ccccc1 (stereo not shown) [amphetamine, Amphetamine]
- reaction of APH1BC ^−/− mice versus wild-type littermates (rise in activity, maximal activity, total activity over two hours) (APH1BC ^−/− mice [1]; p=0,06 for genotype effect): reacted more strongly
- time of peak locomotor activity after injection (APH1BC ^−/− mice [1]; […]): 35 to 40 min
- locomotor activity after drug administration (APH1BC ^−/− mice [1]; […], monitored 2 h after injection): rose strongly and continuously

Compound: CN1CCc2cccc3c2[C@H]1Cc1ccc(O)c(O)c1-3 [apomorphine]
- reaction of APH1BC ^−/− mice versus wild-type littermates (APH1BC ^−/− mice [2]; p=0,045 two-tailed student's t test): reacted more strongly
- activity at 0.002 mg/kg (APH1BC ^−/− mice [2]; read-out: residual activity (distance APO/distance placebo)*100%, APH1BC −/− mice, 10 min open field): 27%
- activity at 0.002 mg/kg (APH1BC ^−/− mice [2]; read-out: residual activity (distance APO/distance placebo)*100%, wild type mice, 10 min open field): 50%
- effect on locomotion (total distance traveled in open field) (APH1BC ^−/− mice [2]; […], 10 min open field, p<0,001 for treatment effect): strong inhibition of locomotion

Compound: O=C(CCCN1CCC(O)(c2ccc(Cl)cc2)CC1)c1ccc(F)cc1 [haloperidol, Haloperidol]
- PPI in APH1BC^−/− mice relative to wild type levels (APH1BC^−/− mice; APH1BC^−/− mice, pp 74/p110 and pp 78/p110 trials, 1 μg/kg injected intra-parietally, PPI measured 45 min after injection): essentially normalized
- effects on (improvements of) PPI in the p100 trials (APH1BC^−/− mice; p100 trials, 1 μg/kg intra-parietally, 45 min after injection): small but insignificant effects
- wild type PPI levels compared to placebo-injected animals (APH1BC^−/− mice; wild type littermates, pp74/p110 and pp 78/p110 trials, 1 μg/kg intra-parietally, 45 min after injection): significantly elevated
